Each structure is given as a SMILES string.

This note sets out measurements from the Deep4Chem optical property database.

A short description of the first series: solvent given as SMILES. The conditions noted are these: in CN(C)C=O.
In the case of `c1ccc(-c2nn(-c3ccccc3)c3nc4ccc(N(c5ccccc5)c5ccccc5)cc4cc23)cc1`, the emission maximum came to 567.21 nm.

The compound `Fc1cc(-c2ccc(-c3nc4ccccc4[nH]3)cc2)ccc1-c1ccc(-c2nc3ccccc3[nH]2)cc1` had an emission maximum of 414 nm.

For the compound `CCN(CC)c1ccc2cc(/C=C/C(=O)/C=C(O)/C=C/c3cc4ccc(N(CC)CC)cc4oc3=O)c(=O)oc2c1`, the emission maximum is 611 nm.

Compound `COc1ccc(-c2csc(/C(C#N)=C\Nc3ccc(C#N)cc3)n2)cc1` came in with an emission maximum of 453 nm.

The same series, now with this note: in CO.
Turning to `Oc1ccc2ccccc2c1-c1nc(-c2ccccc2)c2ccccn12`, the emission maximum came out at 433 nm.

Turning to `CN(C)CCNCc1c2ccccc2cc2ccccc12`, the emission maximum came to 388 nm.

`CC[n+]1c(C=C2C(=O)C(C=C3N(C)c4ccc(Cl)cc4C3(C)C)=C2[O-])sc2ccccc21` yielded an emission maximum of 653 nm.

`Nc1ccc(C#Cc2ccc3ccc4ccc(C#Cc5ccc(N)cc5)c5ccc2c3c45)cc1` gave an emission maximum of 557 nm.

Compound `CNCCCN1c2ccccc2CCc2ccccc21` had an emission maximum of 356 nm.

`C(/C=C/c1ccc(-n2c3ccccc3c3ccccc32)cc1)=C\c1ccncc1` showed an emission maximum of 496 nm.

Compound `CCOC(=O)CCCCCn1c2ccccc2c(=O)c2cc(I)ccc21` came in with an emission maximum of 430 nm.

As to `CCCSc1ccc2n1[B-](F)(F)[N+]1=C(SC#N)C=CC1=C2c1ccccc1`, the emission maximum turned out to be 563 nm.

As to `CN(C)c1ccc(C#Cc2ccc3ccc4ccc(C#Cc5ccc(N(C)C)cc5)c5ccc2c3c45)cc1`, the emission maximum is 555.1 nm.

Still in this series, the particulars now being: in CS(C)=O.
As to `CC(C)CCCCN1CCc2c1ccc1c3c(ccc21)CCCC3=O`, the emission maximum came out at 643 nm.

As for `CCN(CC)c1ccc2cc(/C=C/C(=O)/C=C(O)/C=C/c3cc4ccc(N(CC)CC)cc4oc3=O)c(=O)oc2c1`, the emission maximum was 621 nm.

The series is the same for the next values; noted with them: in Cc1ccccc1.
`CC(C)CCCCN1CCc2c1ccc1c3c(ccc21)CCCC3=O` displayed an emission maximum of 554 nm.

Compound `COc1ccc(C2=C3C(C)=CC(C=Cc4ccc(C(=O)OC5C[C@H]6CCC5(C)C6(C)C)cc4)=[N+]3[B-](F)(F)n3c(C)cc(C)c32)cc1` (stereo partly drawn) came in with an emission maximum of 627 nm.

Consider `Nc1ccc(C#Cc2ccc3ccc4ccc(C#Cc5ccc(N)cc5)c5ccc2c3c45)cc1`, for which the emission maximum was found to be 463 nm.

With `CCN(CC)c1ccc2cc(/C=C/C(=O)/C=C(O)/C=C/c3cc4ccc(N(CC)CC)cc4oc3=O)c(=O)oc2c1`, the emission maximum is given as 542 nm.

Take `COc1ccc(-c2csc(/C(C#N)=C\Nc3ccc(C#N)cc3)n2)cc1`: the emission maximum was determined as 441 nm.

For the compound `CN(C)c1ccc(C#Cc2ccc3ccc4ccc(C#Cc5ccc(N(C)C)cc5)c5ccc2c3c45)cc1`, the emission maximum is on record as 482 nm.

On to `O=S(=O)(c1ccc(N2c3ccccc3Oc3ccccc32)cc1)c1ccc(N2c3ccccc3Oc3ccccc32)cc1`, for which the emission maximum stood at 507 nm.

Take `CC1(C)c2ccccc2N(c2ccc(C(=C(C#N)C#N)c3ccc(N4c5ccccc5C(C)(C)c5ccccc54)cc3)cc2)c2ccccc21`: the emission maximum is listed as 649 nm.

Staying with this series, now noted: in ClC(Cl)Cl.
Turning to `FC(F)(F)c1ccc2oc3nc4oc5ccc(N6c7ccccc7Oc7ccccc76)cc5c4cc3c2c1`, the emission maximum was determined as 489 nm.

As for `CN(C)CCNCc1c2ccccc2cc2ccccc12`, the emission maximum is listed as 417 nm.

For the compound `CC[n+]1c(C=C2C(=O)C(C=C3N(C)c4ccc(Cl)cc4C3(C)C)=C2[O-])sc2ccccc21`, the emission maximum was 664 nm.

Take `CCN(CC)c1ccc2cc(/C=C/C(=O)/C=C(O)/C=C/c3cc4ccc(N(CC)CC)cc4oc3=O)c(=O)oc2c1`: the emission maximum is reported as 581 nm.

`O=S(=O)(c1ccc(N2c3ccccc3Oc3ccccc32)cc1)c1ccc(N2c3ccccc3Oc3ccccc32)cc1` came in with an emission maximum of 539 nm.

On to `CCCCn1c2ccc(-c3ccc(OC)cc3)cc2c2ccc3c4cc(-c5ccc(OC)cc5)ccc4n(CCCC)c3c21`, for which the emission maximum is 415 nm.

The series is the same for the next values; noted with them: in ClCCl.
On to `Cc1ccc(-c2c3nc(c(-c4ccc(C)cc4)c4ccc([nH]4)c(-c4ccc(OC(=O)C(C)c5ccc(CC(C)C)cc5)cc4)c4nc(c(-c5ccc(C)cc5)c5ccc2[nH]5)C=C4)C=C3)cc1` (stereo not drawn), for which the emission maximum is given as 652 nm.

Regarding `Oc1ccc2ccccc2c1-c1nc(-c2ccccc2)c2ccccn12`, the emission maximum stood at 467 nm.

Take `CC1(C)c2ccccc2-c2cc3c(cc21)c1ccccc1n3-c1ccccc1`: the emission maximum is on record as 391 nm.

Take `O=c1c2ccccc2nc2ccc(-c3ccc(N(c4ccccc4)c4ccccc4)cc3)cn12`: the emission maximum was 521 nm.

`Cc1ccc2nc3cc4c(cc3c(-c3ccccc3)c2c1)[Si](C)(C)O[Si](C)(C)O[Si]4(C)C` had an emission maximum of 502 nm.

In turn, `CC(C)CCCCN1CCc2c1ccc1c3c(ccc21)CCCC3=O` gave an emission maximum of 595 nm.

`Nc1ccc(C#Cc2ccc3ccc4ccc(C#Cc5ccc(N)cc5)c5ccc2c3c45)cc1` displayed an emission maximum of 492 nm.

`COc1ccc(/C=C/c2ncc(-c3ccccc3)o2)cc1OC` had an emission maximum of 420 nm.

Compound `CN1c2ccc3c(c2-c2ccccc2S1(=O)=O)-c1ccccc1S(=O)(=O)N3C` showed an emission maximum of 443 nm.

Consider `COc1ccc(N2c3sc4ccccc4c3Sc3sc4ccccc4c32)cc1`, for which the emission maximum is given as 562 nm.

Compound `COc1ccc(-c2cccc3ncc(-c4ccccc4)n23)cc1` gave an emission maximum of 468 nm.

In the case of `CC(C)(C)NC(=O)c1ccc(F)c2ccc3c4ccccc4c4ccccc4c3c12`, the emission maximum is recorded as 405 nm.

In turn, `CCN(CC)c1ccc2cc(/C=C/C(=O)/C=C(O)/C=C/c3cc4ccc(N(CC)CC)cc4oc3=O)c(=O)oc2c1` yielded an emission maximum of 593 nm.

As to `CCCCN(CCCC)c1ccc(C#Cc2cc(C#Cc3ccc([N+](=O)[O-])cc3)c(C#Cc3ccc(N(CCCC)CCCC)cc3)cc2C#Cc2ccc([N+](=O)[O-])cc2)cc1`, the emission maximum is given as 557 nm.

Compound `CCOC(=O)c1c(-c2cc3ccc(OCC=C(C)C)cc3oc2=O)nn(-c2cccc(Cl)c2)c1C(=O)OCC` displayed an emission maximum of 426 nm.

The compound `COc1ccc(-c2csc(/C(C#N)=C\Nc3ccc(C#N)cc3)n2)cc1` registered an emission maximum of 447 nm.

The compound `CCCCN(CCCC)c1ccc(C#Cc2cc(C#Cc3ccc(N(CCCC)CCCC)cc3)c(C#Cc3c(F)c(F)c(F)c(F)c3F)cc2C#Cc2c(F)c(F)c(F)c(F)c2F)cc1` displayed an emission maximum of 555 nm.

`CCCSc1ccc2n1[B-](F)(F)[N+]1=C(SC#N)C=CC1=C2c1ccccc1`: the emission maximum turned out to be 569 nm.

For `CN(C)c1ccc(C#Cc2ccc3ccc4ccc(C#Cc5ccc(N(C)C)cc5)c5ccc2c3c45)cc1`, the emission maximum is on record as 532.7 nm.

In the case of `CCCCN(CCCC)c1ccc2c#cc3cc4c#cc5ccc(C(F)(F)F)cc5c#cc#cc5cc(C(F)(F)F)ccc5c#cc4cc3c#cc3ccc(N(CCCC)CCCC)cc3c#cc#cc2c1`, the emission maximum was 554 nm.

Compound `O=S1(=O)c2ccccc2C2(c3cc(-c4ccc(-n5c6ccccc6c6ccccc65)cc4)ccc3-c3ccc(-c4ccc(-n5c6ccccc6c6ccccc65)cc4)cc32)c2ccccc21` had an emission maximum of 427 nm.

The same series, now with this note: in Clc1ccccc1.
With `CC(C)CCCCN1CCc2c1ccc1c3c(ccc21)CCCC3=O`, the emission maximum was 573 nm.

Still in this series, the particulars now being: in O.
With `Oc1ccc2ccccc2c1-c1nc(-c2ccccc2)c2ccccn12`, the emission maximum stood at 440 nm.

Compound `CNCCCN1c2ccccc2CCc2ccccc21` displayed an emission maximum of 400 nm.

Still in this series, the particulars now being: in O=P(c1ccccc1)(c1ccccc1)c1ccccc1Oc1ccccc1P(=O)(c1ccccc1)c1ccccc1.
In turn, `c1ccc(-c2nc(-c3ccccc3)nc(-c3ccc(-n4c5ccccc5c5cc(-c6ccc7c(c6)c6ccccc6n7-c6ccccc6)ccc54)cc3)n2)cc1` had an emission maximum of 458.07 nm.

Staying with this series, now noted: in c1cc(-n2c3ccccc3c3ccccc32)cc(-n2c3ccccc3c3ccccc32)c1.
As to `O=S(=O)(c1ccc(N2c3ccccc3Oc3ccccc32)cc1)c1ccc(N2c3ccccc3Oc3ccccc32)cc1`, the emission maximum was 505 nm.

The compound `O=S1(=O)c2ccccc2C2(c3cc(-c4ccc(-n5c6ccccc6c6ccccc65)cc4)ccc3-c3ccc(-c4ccc(-n5c6ccccc6c6ccccc65)cc4)cc32)c2ccccc21` showed an emission maximum of 412 nm.

Still in this series, the particulars now being: in c1ccccc1.
As to `CCCCN(CCCC)c1ccc(C#Cc2cc(C#Cc3ccc(N(CCCC)CCCC)cc3)c(C#Cc3c(F)c(F)c(F)c(F)c3F)cc2C#Cc2c(F)c(F)c(F)c(F)c2F)cc1`, the emission maximum worked out at 512 nm.

Compound `CCCCN(CCCC)c1ccc2c#cc3cc4c#cc5ccc(C(F)(F)F)cc5c#cc#cc5cc(C(F)(F)F)ccc5c#cc4cc3c#cc3ccc(N(CCCC)CCCC)cc3c#cc#cc2c1` yielded an emission maximum of 504 nm.
